How the values were obtained:
[1] = target: Recombinant KAT6A/MOZ (488-778) protein (Homo sapiens (Human), UniProt Q92794); assay: KAT6A AlphaLISA Inhibition Screening Assay; assay type: biochemical; settings: for inhibition at 1 µM: read-out: Average Kat6A % inhibition @ 1 μM; for inhibition at 10 µM: read-out: Average Kat6A % inhibition @ 10 μM
How it was run: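 AlphaLISA read-out with anti-acetyl-lysine acceptor and streptavidin donor beads, % inhibition relative to vehicle. Reaction: biotinylated histone H3 1-21 (200 nM) and acetyl-CoA (400 nM) with KAT6A 488-778 (25 nM), 120 min at room temperature, pH 8.0, 330 nM TSA, after 60 or 10 min enzyme–compound pre-incubation; 10-point 3-fold series from 10 μM.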

ZR-75-1 cells = assay: Cell Titer-Glo Luminescent Cell Viability Assay in ZR-75-1 Cells; assay type: cell-based; settings: compounds replenished every 48 hours till day 10, CellTiter-Glo
Protocol: The CellTiter-Glo® Luminescent Cell Viability Assay is a homogeneous method employed to determine the number of metabolically active cells in culture. On day 0, ZR-75-1 cells were detached completely from the culture flasks using 0.25% trypsin-EDTA (Catalog #25200056, Gibco). ZR-75-1 cells were seeded into white opaque-96 well culture plate (Catalog #6005680, Perkin Elmer) at a density of 1500 cells per well in 200 μL of RPMI 1640 medium (Catalog #A1049101, Gibco) supplemented with 10% Fetal Bovine Serum (Catalog #16000044, Gibco) and 1× Penicillin-Streptomycin (Catalog #15140122, Gibco). The plates were incubated at 37° C. with 5% CO2 for 24 hours. On day 1, the spent media was removed from each well of the plate and 180 μL of fresh RPMI 1640 complete media was added. Test compounds were diluted in 100% DMSO followed by complete media. 20 μL of media containing compounds were added to each well so that the final DMSO concentration was 0.5%. The test compounds were tested for 10 points DRC (10 μM top concentration, 3-fold dilution). The assay plates were incubated at 37° C. with 5% CO2 for 48 hours. The test compounds and media were replenished every 48 hours till day 10.
On day 10, the CellTiter-Glo® 2.0 reagent (Catalog #G9242, Promega) was thawed and equilibrated to room temperature. Assay plates were removed from the incubator and equilibrated to room temperature for about 30 minutes. 100 μL of spent media was removed from each well and then 50 μL of CellTiter-Glo® 2.0 Reagent was added. The plates were incubated on an orbital shaker at room temperature for 10 minutes to induce cell lysis and stabilize luminescent signal. The luminescent signal was recorded using Perkin Elmer Envision multi-mode plate reader. Percent cytotoxicity induced by test compounds was determined relative to vehicle control. EC50 value for test compounds was calculated using GraphPad Prism software (four parameter-variable slope equation).

Chain of Recombinant KAT6A/MOZ (488-778) protein (Q92794 488-778): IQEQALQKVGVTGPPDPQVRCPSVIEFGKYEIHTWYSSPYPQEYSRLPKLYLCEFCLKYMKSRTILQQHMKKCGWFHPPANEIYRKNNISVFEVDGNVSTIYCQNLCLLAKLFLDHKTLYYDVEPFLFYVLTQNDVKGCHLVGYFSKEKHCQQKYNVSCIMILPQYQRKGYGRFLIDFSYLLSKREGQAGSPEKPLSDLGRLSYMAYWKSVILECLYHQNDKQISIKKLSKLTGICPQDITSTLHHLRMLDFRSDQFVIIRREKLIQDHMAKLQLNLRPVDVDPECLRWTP

| SMILES | inhibition at 1 µM ([1]; 1 μM test compound) [%] | inhibition at 10 µM ([1]; 10 μM test compound) [%] | EC50 (ZR-75-1 cells; Homo sapiens) [nM] | Average Kat6A % inhibition @ 1 μM ([1]; 1 μM test compound) [%] | Average Kat6A % inhibition @ 10 μM ([1]; 10 μM test compound) [%] | EC50 (ZR-75-1 cells) [nM] |
| --- | --- | --- | --- | --- | --- | --- |
| CCc1ccc(OCC(=O)OC)c(S(=O)(=O)Nc2noc3cc(Cn4cc(CNC(=O)OC)cn4)cc(OC)c23)c1 [Syn. Ex. 55, methyl 2-(4-ethyl-2-(N-(4-methoxy-6-((4-(((methoxycarbonyl)amino)methyl)-1H-pyrazol-1-yl)methyl)benzo[d]isoxazol-3-yl)sulfamoyl)phenoxy)acetate] | 100 | 100 | < 100 | – | – | – |
| C#CC(=O)NCc1cnn(Cc2cc(OC)c3c(NS(=O)(=O)c4cc5c(cc4OC)CCC5)noc3c2)c1 [Syn. Ex. 23, N-((1-((4-methoxy-3-((6-methoxy-2,3-dihydro-1H-indene)-5-sulfonamido)benzo[d]isoxazol-6-yl)methyl)-1H-pyrazol-4-yl)methyl)propiolamide] | – | – | – | 100 | 100 | < 100 |
| C#CC(=O)NCc1cnn(Cc2cc(OC)c3c(NS(=O)(=O)c4cc(C)c(C)cc4OC)noc3c2)c1 [Syn. Ex. 19, N-((1-((4-methoxy-3-((2-methoxy-4,5-dimethylphenyl)sulfonamido)benzo[d]isoxazol-6-yl)methyl)-1H-pyrazol-4-yl)methyl)propiolamide] | 100 | 98 | < 100 | – | – | – |
| CCc1ccc(OC)c(S(=O)(=O)Nc2noc3cc(Oc4ccc(CNC(=O)OC)cn4)cc(OC)c23)c1 [Syn. Ex. 56, methyl ((6-((3-((5-ethyl-2-methoxyphenyl)sulfonamido)-4-methoxybenzo[d]isoxazol-6-yl)oxy)pyridin-3-yl)methyl)carbamate] | 78 | 99 | 100 to 1000 | – | – | – |
| C=C(F)C(=O)NCc1cnn(Cc2cc(OC)c3c(NS(=O)(=O)c4cc(CC)ccc4OCC(=O)OC)noc3c2)c1 [Syn. Ex. 54, methyl 2-(4-ethyl-2-(N-(6-((4-((2-fluoroacrylamido)methyl)-1H-pyrazol-1-yl)methyl)-4-methoxybenzo[d]isoxazol-3-yl)sulfamoyl)phenoxy)acetate] | 97 | 97 | < 100 | – | – | – |
| CC#CC(=O)NCc1cnn(Cc2cc(OC)c3c(NS(=O)(=O)c4ccc(OC)cc4OC)noc3c2)c1 [Syn. Ex. 46, N-((1-((3-((2,4-dimethoxyphenyl)sulfonamido)-4-methoxybenzo[d]isoxazol-6-yl)methyl)-1H-pyrazol-4-yl)methyl)but-2-ynamide] | 98 | 100 | 100 to 1000 | – | – | – |
| C=C(F)C(=O)NCc1ccc(Oc2cc(OC)c3c(NS(=O)(=O)c4cc(CC)ccc4OC)noc3c2)nc1 [Syn. Ex. 51, N-((6-((3-((5-ethyl-2-methoxyphenyl)sulfonamido)-4-methoxybenzo[d]isoxazol-6-yl)oxy)pyridin-3-yl)methyl)-2-fluoroacrylamide] | 89 | 100 | 100 to 1000 | – | – | – |
| C#CC(=O)NCc1cnn(Cc2cc(OC(F)F)c3c(NS(=O)(=O)c4cc(CC)ccc4OC)noc3c2)c1 [Syn. Ex. 53, N-((1-((4-(difluoromethoxy)-3-((5-ethyl-2-methoxyphenyl)sulfonamido)benzo[d]isoxazol-6-yl)methyl)-1H-pyrazol-4-yl)methyl)propiolamide] | 98 | 100 | 1000 to 10000 | – | – | – |
| CCc1ccc(OC)c(S(=O)(=O)Nc2noc3cc(Cn4cc(CNC(=O)C(C)F)cn4)cc(OC)c23)c1 (stereo not drawn) [Syn. Ex. 47, N-((1-((3-((5-ethyl-2-methoxyphenyl)sulfonamido)-4-methoxybenzo[d]isoxazol-6-yl)methyl)-1H-pyrazol-4-yl)methyl)-2-fluoropropanamide] | 98 | 96 | 100 to 1000 | – | – | – |
| COC(=O)NCc1cnn(Cc2cc3onc(NS(=O)(=O)c4ccccc4OC)c3c3c2CCO3)c1 [Syn. Ex. 134, methyl ((1-((8-((2-methoxyphenyl)sulfonamido)-2,3-dihydrobenzofuro[7,6-d]isoxazol-4-yl)methyl)-1H-pyrazol-4-yl)methyl)carbamate] | 97 | 101 | – | – | – | – |
